Data from patent US11678682B2, “Phosphor composition having selected surface coatings” (IMMUNOLIGHT, LLC, priority 2013, dated 2023).
Read-outs that look alike come from different tables or passages of the source.

How the values were obtained:
[1] = test system: human bladder cancer cells; conditions: cited from earlier work
[2] = test system: cisplatin-resistant cells; conditions: photolyzed complex; cited from earlier work
B16 cancer cells = test: Clonogenic cell kill (surviving colonies) with x-ray stimulated phosphor mixtures with and without psoralen (AMT); type: cell-based
Excerpt: Accordingly, combinations of more than two “visible” phosphors can be used in this invention. Discussed below are x-ray settings and mass ratios for clonogenic cell kill experiments. F1 refers to the insertion of an aluminum filter into the x-ray beam to act as a filter.
Psoralen is known to be activated by UV light in the range from 300 to 400 nm. Thus, a measure of cell kill would normally be assumed to be an indirect measure of the internal generation of UV light.
FIGS. 18A and 18B is a plotted cell kill comparison (shown here as the number of surviving colonies) between B16 cancer cells treated with and without psoralen (i.e., AMT) with different phosphor mixtures, but otherwise being x-ray stimulated and containing the multiple phosphor combinations noted above. On these drawings, LDLE=low xRT dose, low energy; HDHE=high xRT dose, high energy.

cells = cells kept in the dark compared to those exposed to light; cited from earlier work

## Cis,trans,cis-[Pt(N3)2(OH)2(NH3)2]
[1]; cells treated with the complex and kept in the dark
  growth inhibition: very little growth inhibition
[1]; photolyzed complex
  growth inhibition: inhibits the growth
[2]
  growth inhibition: inhibits the growth

## O=c1ccc2cc3ccoc3cc2o1 [psoralen]
B16 cancer cells; B16 cells, x-ray stimulated RYG/FYG phosphor mixtures
  cell kill (number of surviving colonies), with versus without psoralen (FIGS. 18A and 18B): improved cell kill
B16 cancer cells; flamingo, yellow, green FYG phosphor combination
  clonogenic colony survival, with versus without psoralen (FIG. 19C): pronounced cell kill
B16 cancer cells; higher kVp x-ray conditions
  cell kill, with versus without psoralen (FIGS. 19A and 19B): does not show an increased kill

## NCCN.[Cl][Pt]([Cl])([I])[I] [[PtCl2I2(en)]]
cells
  cytotoxicity, dark versus light: no difference in cytotoxicity
